# Several values for one entry are separate records, joined by “and”; a condition that tells them apart may be missing. Equal values may be shown once.
# System: heart
# Test: In vivo swine study of carbachol alone vs carbachol plus propranolol, intracoronary, to induce ventricular asystole
# Conditions: individual swine
# Procedure: Eleven male crossbred swine weighing 20-25 kg were studied, eight of which received carbachol alone and three of which received carbachol plus propranolol. The swine were sedated using 10 mg/kg IV ketamine. After 20 minutes, the animals were induced with 10 mg/kg IV thiopental sodium and orotracheally intubated. The proper anesthetic plane was maintained with 1% Isoflurane. Periodic arterial blood gas samples were obtained to guide ventilator management. The electrocardiograph was continuously monitored. Through a 7 Fr sheath in the left femoral artery, arterial blood samples were obtained and a micromanometer was inserted to monitor central aortic blood pressure (Millar Instruments, Inc., Houston, Tex.). The heart was exposed through a median sternotomy and suspended in a pericardial cradle. Two temporary epicardial pacing wires were affixed to the right ventricle and connected to an external pacemaker (Medtronic, Inc., Minneapolis, Minn.). The pacemaker was modified to permit deactuation by means of depressing a foot pedal. Through the femoral sheath, an AR-1 guide (Cordis Corp., Miami Lakes, Fla.) was placed into the right coronary artery. An 0.014-inch floppy guide wire was then advanced into the right coronary artery to the level of the posterior descending coronary artery. The AR-1 guide was removed and a 2.5 Fr Tracker (Cordis Corp., Miami Lakes, Fla.) catheter was inserted over the guide wire. Using dye injection, the catheter was positioned just proximal to the take-off of the atrioventricular node artery. Carbachol (Sigma St. Louis, Mo.) solution was prepared the day of the experiment and infused at a constant rate using a Harvard pump.
# Animals received either carbachol alone or carbachol in combination with propranolol (Inderal®, Wyeth Ayerst, Philadelphia, Pa.). All animals were instrumented and allowed 10 minutes of hemodynamic stability. Before carbachol was administered, each subject received a 500 ml IV bolus of 0.9% sodium chloride.
# In the animals receiving carbachol plus propranolol, a 1 mg dose of propranolol (0.04-0.05 mg/kg) was administered through the Tracker catheter. Carbachol was then administered as a 0.5 mg intracoronary bolus (0.02 mg/kg) followed by a constant infusion. […] After carbachol-mediated ventricular asystole was observed, the heart was paced at 100 beats/minute. […] The systolic blood pressure (SBP), diastolic blood pressure (DBP), and […] arterial pressure (MAP) were recorded every five minutes. The duration of ventricular asystole, defined in this example as a heart rate less than twelve beats per minute, was recorded. […] After 75 minutes, the carbachol infusion was stopped and the time required to return to normal sinus rhythm was recorded.
structure (smiles),measurement,setting,value
"C[N+](C)(C)CCOC(N)=O.[Cl-] [carbachol, carbamyl choline chloride]",time to NSR (normal sinus rhythm),after carbachol infusion was stopped (after 75 minutes),8 min and 3 min
same,duration of ventricular asystole,"asystole defined as heart rate less than twelve beats per minute, pacemaker turned off 5 s at 60-second intervals",87 min and 75 min (2×) and 53 min and 24 min and 76 min (2×) and 47 min
same,carbachol dose (infusion rate per body weight) achieving ventricular asystole,intracoronary infusion,86.0 μg/kg/min and 12.2 μg/kg/min and 9.7 μg/kg/min and 20.9 μg/kg/min and 41.9 μg/kg/min and 10.7 μg/kg/min (2×) and 31.0 μg/kg/min
same,infusion rate of carbachol necessary to achieve ventricular asystole,"intracoronary infusion, doses increased until ventricular asystole observed, combination arm: 1 mg propranolol then 0.5 mg carbachol bolus before infusion",1.72 mg/min and 0.44 mg/min (5×) and 0.88 mg/min and 0.62 mg/min

# Reference: patent US6711436B1, “Compositions, apparatus and methods for facilitating surgical procedures” (priority 1997, dated 2004)
